Results: patent US20150237857A1, “ANTIBACTERIAL INHIBITORS” (MCMASTER UNIVERSITY, priority 2012, published 2015)
Values after ≈ are worked out from the molar mass of the structure shown. Read-outs that look alike come from different tables or passages of the source.

What was measured:
[1] = test system: E. coli MG1655; assay: Metabolic suppression profiling (ChemArray); type: cell-based; conditions: for metabolic suppression profile: metabolites that suppress growth inhibitory activity: ChemArray
[2] = target: recombinant E. coli BioA (Escherichia coli, UniProt P12995); assay: BioA inhibition through a feeding assay of a bioA auxotroph; type: biochemical; conditions: relative to DMSO control
Chain of recombinant E. coli BioA (P12995 whole entry): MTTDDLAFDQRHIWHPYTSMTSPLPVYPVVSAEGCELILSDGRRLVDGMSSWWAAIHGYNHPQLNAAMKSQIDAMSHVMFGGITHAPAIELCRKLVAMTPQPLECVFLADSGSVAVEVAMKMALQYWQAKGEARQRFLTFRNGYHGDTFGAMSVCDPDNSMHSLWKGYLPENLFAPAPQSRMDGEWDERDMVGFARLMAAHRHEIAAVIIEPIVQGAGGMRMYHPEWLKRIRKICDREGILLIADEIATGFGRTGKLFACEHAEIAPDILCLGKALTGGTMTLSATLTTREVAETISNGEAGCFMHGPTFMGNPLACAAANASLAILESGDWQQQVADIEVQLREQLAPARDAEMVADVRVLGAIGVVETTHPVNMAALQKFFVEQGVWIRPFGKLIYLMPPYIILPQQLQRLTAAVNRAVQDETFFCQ
Protocol: To determine if the step catalyzed by BioA was the target of this inhibitor, the inhibitory activity of MAC-0013772 against recombinant E. coli BioA was assayed through a feeding assay of a bioA auxotroph.

[3] = test system: Mycobacteria smegmatis; assay: MIC against Mycobacteria smegmatis in absence and presence of biotin; type: cell-based
[4] = test system: E. coli MG1655; assay: Minimum inhibitory concentration (MIC) determination; conditions: for MIC: Escherichia coli
Protocol: The MIC values were determined in liquid minimal media and minimal media supplemented with amino acids, vitamins and nucleobases.
A single colony of E. coli MG1655 was grown overnight in 5 ml of M9 minimal media. The saturated culture was diluted 1/50 in fresh minimal media and allowed to grow until the OD600 reached ˜0.4. […] After mixing of the bacterial culture with the compounds, the OD600 of the plates was read using Envision to account for background absorbance. The plates were then incubated in a 37° C. stationary incubator for 16 hours before measuring their OD600. After subtracting any background absorbance contributed by colored or precipitated compounds, the MIC was defined as the lowest concentration of antibiotic that inhibits visible growth.

[5] = absence of biotin, read-out: MIC −bio
[6] = presence of 2 nM of biotin, read-out: MIC +bio
[7] = MG1655, 16 h, read-out: MIC +bio, presence of 2 nM of biotin
[8] = MG1655, read-out: MIC −bio, absence of biotin

Row | SMILES | inhibition at 1 µM [2] [%] | inhibition at 10 µM [2] [%] | MIC [3, 5] [µg/mL] | MIC [3, 6] [µg/mL] | MIC [4, 7] [µg/mL] | MIC [4, 8] [µg/mL] | further results
1 | CN(C)CCC(=O)c1ccc2c(c1)OCCO2 [MAC-0161738, 1-(2,3-dihydrobenzo[b][1,4]dioxin-6-yl)-3-(dimethylamino)propan-1-one] | – | – | – | – | – | – | suppression of growth inhibitory activity by glycine ([1]; 4× MIC in M9 minimal media): strongly suppressed
2 | COc1ccccc1SCC(=O)NN [Compound 1i, 2-(2-methoxyphenylthio)acetohydrazide] | 65 | 100 | 16 | > 256 | > 256 | 128 (≈ 603 µM) | –
3 | NNC(=O)CSc1ccncc1 [Compound 2i, 2-(pyridin-4-ylthio)acetohydrazide] | 32 | 77 | 8 | 128 | > 256 | 64 (≈ 349 µM) | antibacterial potency against M. smegmatis compared with MAC-0013772 (in words) [3]: potencies similar to that of MAC-0013772
4 | COc1cc(Cc2cnc(N)nc2N)cc(OC)c1OC [Trimethoprim, reference compound] | – | – | – | – | – | – | metabolic suppression profile: metabolites that suppress growth inhibitory activity ([1]; 4× MIC in M9 minimal media): only be suppressed by providing a mixture of all supplements or at least a mixture of amino acids and nucleobases
5 | NNC(=O)CSc1ccccc1O [Compound 1f, 2-(2-hydroxyphenylthio)acetohydrazide] | 32 | 70 | 32 | 256 | 256 | 256 (≈ 1290 µM) | –
6 | NNC(=O)CSc1ccccc1F [Compound 1d, 2-(2-fluorophenylthio)acetohydrazide] | 36 | 100 | 4 | > 256 | > 256 | 32 (≈ 160 µM) | antibacterial potency against M. smegmatis compared with MAC-0013772 (in words) [3]: potencies similar to that of MAC-0013772
7 | N[C@@H]1CONC1=O [D-cycloserine, reference compound] | – | – | – | – | – | – | metabolic suppression profile: metabolites that suppress growth inhibitory activity ([1]; 4× MIC in M9 minimal media): suppressed by the addition of either D/L-alanine or glycine; suppression of growth inhibitory activity by glycine ([1]; 4× MIC in M9 minimal media): strongly suppressed
8 | NNC(=O)CSc1ccccc1N [Compound 1g, 2-(2-aminophenylthio)acetohydrazide] | 58 | 100 | 32 | 256 | > 256 | 256 (≈ 1300 µM) | –
9 | O=C(O)CNCP(=O)(O)O [glyphosate, reference compound] | – | – | – | – | – | – | metabolic suppression profile: metabolites that suppress growth inhibitory activity ([1]; 4× MIC in M9 minimal media): could only be achieved by providing a mixture of amino acids; suppression of growth inhibitory activity by pools containing the aromatic amino acids ([1]; expanded ChemArray): fully reversed
10 | NNC(=O)C1Cc2ccccc2S1 (centres unmarked) [Compound 2f, 2,3-dihydrobenzo[b]thiophene-2-carbohydrazide] | 15 | 69 | 64 | > 256 | > 256 | > 256 | –
11 | CC(=O)CSc1ccccc1[N+](=O)[O-] [Compound 1m] | 0 | 0 | 256 | 256 | > 256 | > 256 | –
12 | NNC(=O)CSc1ccc2ccccc2c1 [Compound 2h, 2-(naphthalen-2-ylthio)acetohydrazide] | 71 | 100 | 32 | > 256 | > 256 | > 256 | –
13 | CCC(=O)NN [Compound 2d] | 0 | 8 | 64 | 64 | > 256 | > 256 | –
14 | NNC(=O)Cc1ccccc1[N+](=O)[O-] [Compound 2j] | 0 | 29 | 256 | > 256 | > 256 | > 256 | –
15 | Cc1ccccc1SCC(=O)NN [Compound 1h, 2-(o-tolylthio)acetohydrazide] | 81 | 100 | 4 | > 256 | > 256 | 16 (≈ 81.5 µM) | antibacterial potency against M. smegmatis compared with MAC-0013772 (in words) [3]: potencies similar to that of MAC-0013772; antibacterial activity against E. coli (in words) [4]: does not gravely alter antibacterial activity
16 | NNC(=O)CSc1cccc([N+](=O)[O-])c1 [Compound 1a, 2-(3-nitrophenylthio)acetohydrazide] | 42 | 84 | 16 | > 256 | > 256 | 256 (≈ 1130 µM) | –
17 | NC(=O)CSc1ccccc1[N+](=O)[O-] [Compound 1l] | 0 | 0 | 128 | > 256 | > 256 | > 256 | –
18 | CC(=O)NNC(=O)CSc1ccc([N+](=O)[O-])cc1 [Compound 1j] | 0 | 0 | > 256 | > 256 | > 256 | > 256 | –
19 | NNC(=O)CSCc1ccccc1 [Compound 2g, 2-(benzylthio)acetohydrazide] | 60 | 100 | 8 | > 256 | > 256 | 64 (≈ 326 µM) | antibacterial potency against M. smegmatis compared with MAC-0013772 (in words) [3]: potencies similar to that of MAC-0013772
20 | NNC(=O)CSc1ccccc1 [Compound 1c, 2-(phenylthio)acetohydrazide] | 49 | 100 | 4 | > 256 | > 256 | 64 (≈ 351 µM) | antibacterial potency against M. smegmatis compared with MAC-0013772 (in words) [3]: potencies similar to that of MAC-0013772
21 | NNC(=O)CSc1ccc([N+](=O)[O-])cc1 [Compound 1b, 2-(4-nitrophenylthio)acetohydrazide] | 66 | 100 | 4 | > 256 | – | – | antibacterial potency against M. smegmatis compared with MAC-0013772 (in words) [3]: potencies similar to that of MAC-0013772
22 | Cc1cc(NS(=O)(=O)c2ccc(N)cc2)no1 [sulfamethoxazole, reference compound] | – | – | – | – | – | – | suppression of growth inhibitory activity by p-aminobenzoic acid (PABA) ([1]; 4× MIC in M9 minimal media, PABA in growth media): fully reversed; suppression of growth inhibitory activity by methionine ([1]; 4× MIC in M9 minimal media, methionine in growth media): to a certain extent
23 | O=C(O)CSc1ccccc1[N+](=O)[O-] [Compound 1n] | 0 | 0 | > 256 | > 256 | > 256 | > 256 | –
24 | NNC(=O)CS [Compound 2b] | 20 | 34 | 32 | 32 | 256 | 256 (≈ 2410 µM) | –
25 | O=C(CCN1CCCCC1)c1ccc2c(c1)OCCCO2 [MAC-0162065, 1-(3,4-dihydro-2H-benzo[b][1,4]dioxepin-7-yl)-3-(piperidin-1-yl)propan-1-one] | – | – | – | – | – | – | suppression of growth inhibitory activity by glycine ([1]; 4× MIC in M9 minimal media): strongly suppressed
26 | CCC(=O)CSc1ccccc1[N+](=O)[O-] [Compound 1k] | 0 | 0 | > 256 | > 256 | > 256 | > 256 | –
27 | NNC(=O)CSc1ccccc1Cl [Compound 1e, 2-(2-chlorophenylthio) acetohydrazide] | 63 | 100 | 4 | > 256 | > 256 | 16 (≈ 73.8 µM) | antibacterial potency against M. smegmatis compared with MAC-0013772 (in words) [3]: potencies similar to that of MAC-0013772; antibacterial activity against E. coli (in words) [4]: does not gravely alter antibacterial activity
28 | CCn1cc(C(=O)O)c(=O)c2cc(F)c(N3CCNCC3)cc21 [norfloxacin, reference compound] | – | – | – | – | – | – | metabolic suppression profile: metabolites that suppress growth inhibitory activity ([1]; 4× MIC in M9 minimal media): not altered in the presence of supplements
29 | CCCC(=O)NN [Compound 2c] | 1 | 40 | – | – | – | – | MIC ([3]; read-out: MIC +bio): 64 µg/mL; MIC ([3]; read-out: MIC −bio): 64 µg/mL; MIC ([4]; MG1655, read-out: MIC −bio): > 256 µg/mL
30 | CSCC(=O)NN [Compound 2a] | 50 | 64 | 32 | 32 | 64 | 64 (≈ 533 µM) | suppression of growth inhibition in the presence of biotin (in words) ([4]; presence of biotin): not suppressed
